BindingDB's records for doi:10.7270/Q2183BCW (D3R/Abbott, 2020)

The compounds below were run against Cathepsin S (Homo sapiens, UniProt P25774) (assay: D3R2024).
From the text: D3R2024

Chain of Cathepsin S (P25774 whole entry): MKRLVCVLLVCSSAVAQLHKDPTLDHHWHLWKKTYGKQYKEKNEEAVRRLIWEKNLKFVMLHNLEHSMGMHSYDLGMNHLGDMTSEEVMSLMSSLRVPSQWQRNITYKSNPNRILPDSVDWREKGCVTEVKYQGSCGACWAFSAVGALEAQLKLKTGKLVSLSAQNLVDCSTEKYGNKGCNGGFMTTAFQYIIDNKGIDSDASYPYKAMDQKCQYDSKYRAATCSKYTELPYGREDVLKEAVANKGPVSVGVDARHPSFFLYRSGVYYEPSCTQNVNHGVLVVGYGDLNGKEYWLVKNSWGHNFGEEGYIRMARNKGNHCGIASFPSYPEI

| SMILES | IC50 |
| --- | --- |
| O=C(NC1CCN(c2ccnc(Nc3ccc(F)cc3)n2)C1)c1cc2ccccc2s1 (configuration not stated) [D3RKN_110] | 10 µM |
| N#Cc1cccc(C(=O)NC2CCN(c3ccnc(Nc4ccc(F)cc4)n3)C2)c1 (configuration not stated) [D3RKN_100] | 5.8 µM |
| COc1cc(Nc2nccc(N3CCC(NC(=O)Nc4cc(C)ccc4C)C3)n2)cc(OC)c1OC (configuration not stated) [D3RKN_101] | 10 µM |
| COC(=O)C(NC(=O)NC1CCN(c2ccnc(Nc3ccc(F)cc3)n2)C1)c1ccccc1 (configuration not stated) [D3RKN_106] | 7.8 µM |
| COC(=O)C(Cc1ccccc1)NC(=O)NC1CCN(c2ccnc(Nc3ccc(F)cc3)n2)C1 (configuration not stated) [D3RKN_109] | 1.9 µM |
| CCCc1ccc(S(=O)(=O)NC2CCN(c3ccnc(Nc4ccc(OC)cc4)n3)C2)cc1 (configuration not stated) [D3RKN_102] | 0.68 µM |
| COc1cc(Nc2nccc(N3CCC(NC(=O)c4cccc(C#N)c4)C3)n2)cc(OC)c1OC (configuration not stated) [D3RKN_105] | 0.18 µM |
| Cc1ccc(C)c(NC(=O)NC2CCN(c3ccnc(Nc4ccc(F)cc4)n3)C2)c1 (configuration not stated) [D3RKN_108] | 10 µM |
| COc1ccc(Nc2nccc(N3CCC(NS(=O)(=O)c4ccc(NC(C)=O)cc4)C3)n2)cc1 (configuration not stated) [D3RKN_103] | 0.053 µM |
| COC(=O)c1cccc(NC(=O)NC2CCN(c3ccnc(Nc4cc(OC)c(OC)c(OC)c4)n3)C2)c1 (configuration not stated) [D3RKN_99] | 0.34 µM |
| COc1cc(Nc2nccc(N3CCC(NC(=O)c4cc5ccccc5s4)C3)n2)cc(OC)c1OC (configuration not stated) [D3RKN_104] | 0.71 µM |

Now from value to compound:

| IC50 | SMILES |
| --- | --- |
| 2.4 µM | COc1ccc(Nc2nccc(N3CCC(NC(=O)c4cccc(NC(C)=O)c4)C3)n2)cc1 (configuration not stated) [D3RKN_111] |
| 4.7 µM | COc1ccc(Nc2nccc(N3CCC(NC(=O)c4cccc(C#N)c4)C3)n2)cc1 (configuration not stated) [D3RKN_112] |
| 10 µM | COC(=O)c1cccc(NC(=O)NC2CCN(c3ccnc(Nc4ccc(OC)cc4)n3)C2)c1 (configuration not stated) [D3RKN_113] |
| 0.054 µM | COc1cc(Nc2nccc(N3CCC(NC(=O)c4cccc(NC(C)=O)c4)C3)n2)cc(OC)c1OC (configuration not stated) [D3RKN_114] |
| 10 µM | COC(=O)c1cccc(NC(=O)NC2CCN(c3ccnc(Nc4ccc(F)cc4)n3)C2)c1 (configuration not stated) [TCMDC-133606] |
| 10 µM | COc1ccc(Nc2nccc(N3CCC(NC(=O)Nc4cc(C)ccc4C)C3)n2)cc1 (configuration not stated) [D3RKN_115] |
